Assay results reported in patent US11071721B2, “Bicyclic amide compounds and methods of use thereof” (Genentech, Inc., priority 2016, dated 2021).

The compounds below were run against human RIP1 kinase domain (2-375) (Homo sapiens (Human), UniProt Q13546) (assay: RIP1 kinase inhibition assay (Transcreener ADP biochemical enzyme assay)). Settings: Ki app (Morrison tight-binding fit); 50 nM enzyme, 50 uM ATP, 2 hours incubation, fluorescence polarization.
Procedure: RIP1 Kinase Inhibition Assays (Biochemical Assay):
The compounds of the present invention were tested for their capacity to inhibit RIP K activity as described below.
Enzyme assay: The ability of the receptor interacting protein kinase (RIPK1) to catalyze the hydrolysis of adenosine-5′-triphosphate (ATP) is monitored using the Transcreener ADP (adenosine-5′-diphosphate) assay (BellBrook Labs). Purified human RIP1 kinase domain (2-375) (50 nM) derived from a baculovirus-infected insect cell expression system is incubated with test compounds for 2 hours in 50 mM Hepes buffer (pH 7.5) containing 30 mM MgCl2, 1 mM dithiothreitol, 50 uM ATP, 0.002% Brij-35, and 0.5% dimethyl sulfoxide (DMSO). Reactions are quenched by the addition of 1× Bell Brooks Stop buffer B (20 mM Hepes (ph7.5), 40 mM ethylenediaminetetraacetic acid and 0.02% Brij-35) containing an additional 12 mM EDTA and 55 ug/mL ADP2 antibody and 4 nM ADP-AlexaFluor® 633 tracer. The tracer bound to the antibody is displaced by the ADP generated during the RIP1K reaction, which causes a decrease in fluorescence polarization that is measured by laser excitation at 633 nm with a FP microplate reader M1000. Fractional activity was plotted against test article concentration. Using Genedata Screener software (Genedata; Basel, Switzerland), the data were fit to the tight-binding apparent inhibition constant (Ki^app) Morrison equation [Williams, J. W. and Morrison, J. F. (1979) The kinetics of reversible tight-binding inhibition. Methods Enzymol 63: 437-67]. The following equation was used to calculate fractional activity and Ki^app:
[formula] where [E]T and [I]T are the total concentrations of active enzyme and test article, respectively.

human RIP1 kinase domain (2-375), sequence (Q13546 2-375): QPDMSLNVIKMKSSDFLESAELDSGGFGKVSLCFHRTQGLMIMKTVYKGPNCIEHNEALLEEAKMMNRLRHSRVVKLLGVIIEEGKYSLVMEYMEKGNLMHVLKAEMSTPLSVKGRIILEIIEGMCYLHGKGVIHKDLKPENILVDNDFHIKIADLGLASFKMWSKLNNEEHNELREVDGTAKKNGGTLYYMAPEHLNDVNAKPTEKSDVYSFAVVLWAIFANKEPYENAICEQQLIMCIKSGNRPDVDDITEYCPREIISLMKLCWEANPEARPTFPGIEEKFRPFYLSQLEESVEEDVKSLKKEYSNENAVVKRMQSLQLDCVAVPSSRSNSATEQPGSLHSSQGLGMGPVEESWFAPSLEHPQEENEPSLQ

| Compound | Ki [nM] |
| --- | --- |
| O=C(c1nc2n(n1)[C@H](c1ccccc1)C[C@@H]2F)N1CCn2ccnc2C1 (racemic) [Example 68, 6,8-dihydro-5H-imidazo[1,2-a]pyrazin-7-yl-[rac-(5S,7S)-7-fluoro-5-phenyl-6,7-dihydro-5H-pyrrolo[1,2-b][1,2,4]triazol-2-yl]methanone] | 49 |
| CC1c2ccccc2CCN1C(=O)c1nc2n(n1)[C@H](c1ccccc1)C[C@@H]2F (mixture of isomers) [Example 97, (1-methyl-3,4-dihydro-1H-isoquinolin-2-yl)-[rac-(5S,7S)-7-fluoro-5-phenyl-6,7-dihydro-5H-pyrrolo[1,2-b][1,2,4]triazol-2-yl]methanone] | 58 |
| O=C(c1nc2n(n1)C(c1ccccc1)CC2)N1CCCC1 (racemic) [Example 30, (5-phenyl-6,7-dihydro-5H-pyrrolo[1,2-b][1,2,4]triazol-2-yl)-pyrrolidin-1-yl-methanone] | 6400 |
| O=C(c1nc2n(n1)[C@H](c1ccccc1)C[C@@H]2F)N1CCC(C(F)(F)F)n2nccc21 (mixture of isomers) [Example 81, [rac-(5S,7S)-7-fluoro-5-phenyl-6,7-dihydro-5H-pyrrolo[1,2-b][1,2,4]triazol-2-yl]-[7-(trifluoromethyl)-6,7-dihydro-5H-pyrazolo [1,5-a]pyrimidin-4-yl]methanone] | 250 |
| C[C@@H]1C[C@H](F)CN1C(=O)c1nc2n(n1)[C@H](c1ccccc1)C[C@@H]2F (racemic) [Example 70, [rac-(2R,4S)-4-fluoro-2-methyl-pyrrolidin-1-yl]-[rac-(5S,7S)-7-fluoro-5-phenyl-6,7-dihydro-5H-pyrrolo[1,2-b] [1,2,4]triazol-2-yl]methanone] | 150 |
| CN(C)C(=O)c1nc2n(n1)CCOC2c1ccccc1 (racemic) [Example 41, N,N-dimethyl-8-phenyl-6,8-dihydro-5H-[1,2,4]triazolo[5,1-c][1,4]oxazine-2-carboxamide] | 8000 |
| CN(CC(F)(F)F)C(=O)c1nc2n(n1)[C@H](c1ccccc1)C[C@@H]2F (racemic) [Example 92, rac-(5S,7S)-7-fluoro-N-methyl-5-phenyl-N-(2,2,2-trifluoroethyl)-6,7-dihydro-5H-pyrrolo [1,2-b][1,2,4]triazole-2-carboxamide] | 100 |
| O=C(c1nc2n(n1)[C@H](c1ccccc1)C[C@@H]2F)N1CCCc2ccccc2C1 (racemic) [Example 94, [rac-(5S,7S)-7-fluoro-5-phenyl-6,7-dihydro-5H-pyrrolo[1,2-b][1,2,4]triazol-2-yl]-(1,3,4,5-tetrahydro-2-benzazepin-2-yl)methanone] | 160 |
| O=C(c1nc2n(n1)[C@H](c1ccccc1)C[C@@H]2F)N1CC(F)(F)C[C@H]1CF (racemic) [Example 73, [rac-(2S)-4,4-difluoro-2-(fluoromethyl)pyrrolidin-1-yl]-[rac-(5S,7S)-7-fluoro-5-phenyl-6,7-dihydro-5H-pyrrolo[1,2-b] [1,2,4]triazol-2-yl]methanone] | 82 |
| O=C(c1nc2n(n1)[C@H](c1ccccc1)C[C@@H]2F)N1CCc2cccnc2C1 (stereo in doubt) [Example 74, 6,8-dihydro-5H-1,7-naphthyridin-7-yl-[rac-(5S, 7S)-7-fluoro-5-phenyl-6,7-dihydro-5H-pyrrolo [1,2-b][1,2,4]triazol-2-yl]methanone] | 24 |
| CN(C)C(=O)c1nc2n(n1)[C@@H](c1ccccc1)C[C@H]2F (racemic) [Example 105, rac-(5R,7R)-7-fluoro-N,N-dimethyl-5-phenyl-6,7-dihydro-5H-pyrrolo[1,2-b][1,2,4]triazole-2-carboxamide] | 56 |
| O=C(c1nc2n(n1)[C@H](c1ccccc1)C[C@@H]2F)N1CC2CC1CC2(F)F (mixture of isomers) [Example 87, (5,5-difluoro-2-azabicyclo[2.2.1]heptan-2-yl)-[rac-(5S,7S)-7-fluoro-5-phenyl-6,7-dihydro-5H-pyrrolo[1,2-b][1,2,4]triazol-2-yl]methanone] | 150 |
| O=C(c1nc2n(n1)[C@H](c1ccccc1)C[C@@H]2F)N1CCc2ccccc2C1 (stereo in doubt) [Example 99, 3,4-dihydro-1H-isoquinolin-2-yl-[rac-(5S,7S)-7-fluoro-5-phenyl-6,7-dihydro-5H-pyrrolo[1,2-b][1,2,4]triazol-2-yl]methanone] | 13 |
| O=C(c1nc2n(n1)[C@@H](c1ccccc1)C[C@H]2F)N1CCc2cccnc2C1 (stereo in doubt) [Example 67, 6,8-dihydro-5H-1,7-naphthyridin-7-yl-[rac-(5R,7R)-7-fluoro-5-phenyl-6,7-dihydro-5H-pyrollo[1,2-b][1,2,4]triazol-2-yl]methanone] | 5 |
| O=C(c1nc2n(n1)[C@@H](c1ccccc1)C[C@H]2F)N1CCn2nccc2C1 (stereo in doubt) [Example 66, 6,7-dihydro-4H-pyrazolo[1,5-a]pyrazin-5-yl-[rac-(5R,7R)-7-fluoro-5-phenyl-6,7-dihydro-5H-pyrrolo[1,2-b][1,2,4]triazol-2-yl]methanone] | 15 |
| O=C(c1nc2n(n1)[C@@H](c1ccccc1F)CC2)N1CC(F)(F)C1 (single isomer, unassigned) [Example 11] | 9 |
| O=C(c1nc2n(n1)[C@@H](c1ccccc1)C[C@H]2F)N1CC2C(C1)C2(F)F (mixture of isomers) [Example 100, (6,6-difluoro-3-azabicyclo[3.1.0]hexan-3-yl)-[rac-(5R,7R)-7-fluoro-5-phenyl-6,7-dihydro-5H-pyrrolo[1,2-b][1,2,4]triazol-2-yl]methanone] | 270 |
| O=C(c1nc2n(n1)[C@H](c1ccccc1)C[C@@H]2F)N1CCc2cnccc2C1 (racemic) [Example 75, 3.4-dihydro-1H-2,6-naphthyridin-2-yl-[rac-(5S,7S)-7-fluoro-5-phenyl-6,7-dihydro-5H-pyrrolo[1,2-b][1,2,4]triazol-2-yl]methanone] | 290 |
| CCC1CN(C(=O)c2nc3n(n2)C(c2ccccc2)CC3)C1 (racemic) [Example 21, (3-ethylazetidin-1-yl)-(5-phenyl-6,7-dihydro-5H-pyrrolo[1,2-b][1,2,4]triazol-2-yl)methanone] | 1360 |
| O=C(c1nc2n(n1)[C@H](c1ccccc1)C[C@@H]2F)N1CCC(F)(F)C1 (stereo in doubt) [Example 98, (3,3-difluoropyrrolidin-1-yl)-[rac-(5S,7S)-7-fluoro-5-phenyl-6,7-dihydro-5H-pyrrolo [1,2-b][1,2,4]triazol-2-yl]methanone] | 36 |
| O=C(c1nc2n(n1)[C@H](c1ccccc1)C[C@@H]2F)N(CC(F)F)C1CC1 (racemic) [Example 58, rac-(5S,7S)-N-cyclopropyl-N-(2,2-difluoroethyl)-7-fluoro-5-phenyl-6,7-dihydro-5H-pyrrolo[1,2-b][1,2,4]triazole-2-carboxamide] | 570 |
| COC1CN(C(=O)c2nc3n(n2)C(c2ccccc2)CC3)C1 (racemic) [Example 17, (3-methoxyazetidin-1-yl)-(5-phenyl-6,7-dihydro-5H-pyrrolo[1,2-b][1,2,4]triazol-2-yl)methanone] | 1370 |
| O=C(c1nc2n(n1)[C@H](c1ccccc1)C[C@@H]2F)N1CCC[C@@H]1CO (racemic) [Example 71, [rac-(5S,7S)-7-fluoro-5-phenyl-6,7-dihydro-5H-pyrrolo[1,2-b][1,2,4]triazol-2-yl]-[rac-(2R)-2-(hydroxymethyl)pyrrolidin-1-yl]methanone] | 690 |
| O=C(c1nc2n(n1)C(c1ccccc1F)CC2)N1CC(F)(F)C1 (racemic) [Example 23, (3,3-difluroroazetidin-1-yl)-[5-(2-fluorophenyl)-6,7-dihydro-5H-pyrrolo[1,2-b][1,2,4]triazol-2-yl]methanone] | 44 |
| O=C(c1nc2n(n1)CCOC2c1ccccc1)N1CC(F)(F)C1 (racemic) [Example 5, (3,3-difluoroazetidin-1-yl)-(8-phenyl-6,8-dihydro-5H-[1,2,4]triazolo[5,1-c][1,4]oxazin-2-yl)methanone] | 768 |
| O=C(c1nc2n(n1)[C@H](c1ccccc1)C[C@@H]2F)N1CCC(Cc2ccccc2)C1 (mixture of isomers) [Example 93, (3-benzylpyrrolidin-1-yl)-[rac-(5S,7S)-7-fIuoro-5-phenyl-6,7-dihydro-5H-pyrrolo[1,2-b][1,2,4]triazol-2-yl]methanone] | 30 |
| O=C(c1cc2n(n1)C(c1ccccc1)CC2)N1CC(F)(F)C1 (racemic) [Example 102, (3,3-difluoroazetidin-1-yl)-(6-phenyl-5,6-dihydro-4H-pyrrolo[1,2-b]pyrazol-2-yl)methanone] | 240 |
| O=C(c1nc2n(n1)[C@H](c1ccccc1)C[C@@H]2F)N1CCCn2nccc21 (racemic) [Example 80, 6,7-dihydro-5H-pyrazolo[1,5-a]pyrimidin-4-yl-[rac-(5S,7S)-7-fluoro-5-phenyl-6,7-dihydro-5H-pyrrolo[1,2-b][1,2,4]triazol-2-yl]methanone] | 100 |
